Patent US4220755A, “Fortimicin B derivatives and process for production thereof” (Abbott Laboratories, priority 1976, dated 1980)
Converted amounts (≈) assume the structure as drawn. Like-named read-outs stand apart in the source and are kept apart here.

What was measured:
[1] = tested on: Staphylococcus aureus KY4279 ATCC6538P; experiment: MIC, agar dilution method, pH 8.0; type: cell-based
Method: (§1) Measurement was carried out according to the agar dilution method, using a medium of pH 8.0, or the Japanese Antibiotic Medicament Standard, using a medium of pH 7.2 Units are in mcg/ml.
S.A.: Staphylococcus aureus KY4279 ATCC6538P

Bacillus subtilis KY4273 = experiment: MIC, agar dilution method, pH 8.0; type: cell-based
Method: as §1
B.S.: Bacillus subtilis KY4273

[2] = tested on: Eschericia coli KY4271 ATCC26; experiment: MIC, agar dilution method, pH 8.0; type: cell-based; details: Escherichia coli, ATCC26; pH 8.0; E. coli KY4271; read-out: Minimum inhibition concentration (MIC), EC
Method: as §1
E.C.: Eschericia coli KY4271 ATCC26

[3] = tested on: Proteus vulgaris KY4277 ATCC6897; experiment: MIC, agar dilution method, pH 8.0; type: cell-based; details: ATCC6897; pH 8.0; Proteus vulgaris KY4277; read-out: Minimum inhibition concentration (MIC), PV
Method: as §1

[4] = tested on: Shigella sonnei KY4281 ATCC9290; experiment: MIC, agar dilution method, pH 8.0; type: cell-based; details: ATCC9290; pH 8.0; Shigella sonnei KY4281; read-out: Minimum inhibition concentration (MIC), SS
Method: as §1

[5] = tested on: Salmonella typhosa KY4278 ATCC9992; experiment: MIC, agar dilution method, pH 8.0; type: cell-based; details: Salmonella enterica, pH 8, read-out: Minimum inhibition concentration (MIC), ST
Method: as §1
S.T.: Salmonella typhosa KY4278 ATCC9992

[6] = tested on: Klebsiella pneumoniae KY4275 ATCC10031; experiment: MIC, agar dilution method, pH 8.0; type: cell-based; details: ATCC10031; pH 8.0; Klebsiella pneumoniae KY4275; read-out: Minimum inhibition concentration (MIC), KP
Method: as §1
K.P.: Klebsiella pneumoniae KY4275 ATCC10031.

[7] = Stability in alkaline aqueous conditions; type: physicochemical; details: pH 10, room temperature, within one hour
Method: The stability of 4-N-acylfortimicin B derivatives in aqueous alkaline conditions is poor. […] Therefore, purification of these compounds under basic conditions (for example, column chromatography with Amberlite CG-50, eluting with aqueous ammonia) is not practical.
In contrast with the instability of 4-N-acylfortimicin B derivatives, 4-N-alkylfortimicin B derivatives are so stable that no decomposition occurs even in aqueous barium hydroxide solution at reflux temperature for 18 hours. Therefore, in the case of 4-N-alkylfortimicin B, any substituents can be introduced at 4-N-position of fortimicin B, even though such substituents can not be introduced as the acyl type to such position due to the aforementioned instability.

Escherichia coli NIHTC-2 = experiment: MIC, agar dilution method, pH 7.2; type: cell-based; details: NIHTC2; pH 7.2; Escherichia coli NIHTC-2; read-out: Minimum inhibition concentration (MIC)
Method: as §1

[8] = tested on: Eschericihia coli GN2411-5; experiment: MIC, agar dilution method, pH 7.2; type: cell-based; details: Escherichia coli; pH 7.2; E. coli GN2411-5; read-out: Minimum inhibition concentration (MIC)
Method: as §1

[9] = tested on: Klebsiella pneumoniae KY4274; experiment: MIC, agar dilution method, pH 7.2; type: cell-based; details: pH 7.2; Klebsiella pneumoniae KY4274; read-out: Minimum inhibition concentration (MIC)
Method: as §1

Proteus vulgaris JJ = experiment: MIC, agar dilution method, pH 7.2; type: cell-based; details: pH 7.2; Proteus vulgaris JJ; read-out: Minimum inhibition concentration (MIC)
Method: as §1

[10] = tested on: Pseudomonas aeruginosa BMH# 1; experiment: MIC, agar dilution method, pH 7.2; type: cell-based; details: pH 7.2; Pseudomonas aeruginosa BMH# 1; read-out: Minimum inhibition concentration (MIC)
Method: as §1

[11] = tested on: Pseudomonas aeruginosa UCLA 4184; experiment: MIC, agar dilution method, pH 7.2; type: cell-based; details: UCLA4184; pH 7.2; Pseudomonas aeruginosa UCLA 4184; read-out: Minimum inhibition concentration (MIC)
Method: as §1

[12] = tested on: Salmonella enteritidis G-14; experiment: MIC, agar dilution method, pH 7.2; type: cell-based; details: Salmonella enterica; pH 7.2; Salmonella enteritidis G-14; read-out: Minimum inhibition concentration (MIC)
Method: as §1

Shigella sonnei ATCC9290 = experiment: MIC, agar dilution method, pH 7.2; type: cell-based; details: read-out: Minimum inhibition concentration (MIC)
Method: as §1

[13] = tested on: Staphylococcus aureus 209-P; experiment: MIC, agar dilution method, pH 7.2; type: cell-based; details: pH 7.2; Staphylococcus aureus 209-P; read-out: Minimum inhibition concentration (MIC)
Method: as §1

[14] = tested on: Staphylococcus aureus Smith (A); experiment: MIC, agar dilution method, pH 7.2; type: cell-based; details: pH 7.2; Staphylococcus aureus Smith (A); read-out: Minimum inhibition concentration (MIC)
Method: as §1

[15] = tested on: Staphylococcus a ureus 226; experiment: MIC, agar dilution method, pH 7.2; type: cell-based, Staphylococcus aureus; details: pH 7.2; Staphylococcus aureus 226; read-out: Minimum inhibition concentration (MIC)
Method: as §1

Eschericihia coli 3100 = experiment: MIC, agar dilution method, pH 7.2; type: cell-based, Escherichia coli; details: Escherichia coli; pH 7.2; E. coli 3100; read-out: Minimum inhibition concentration (MIC)
Method: as §1

[16] = tested on: Escherichia coli 57R/W677; experiment: MIC, agar dilution method, pH 7.2; type: cell-based; details: 57R/W677, pH 7.2, read-out: Minimum inhibition concentration (MIC)
Method: as §1
(§2) **1: gentamicin, producing adenylsynthetase.

Escherichia coli 76-2 = experiment: MIC, agar dilution method, pH 7.2; type: cell-based; details: Escherichia coli, 762; pH 7.2; E. coli 76-2; 1**: gentamicin, producing adenylsynthetase; read-out: Minimum inhibition concentration (MIC)
Method: as §1, §2

[17] = tested on: Escherichia coli R12 Z-338; experiment: MIC, agar dilution method, pH 7.2; type: cell-based; details: R12Z338, pH 7.2, E. coli R12 Z-338, 1**: gentamicin, producing adenylsynthetase, read-out: Minimum inhibition concentration (MIC)
Method: as §1, §2

[18] = tested on: Klebsiella pneumoniae 3020 Y-60; experiment: MIC, agar dilution method, pH 7.2; type: cell-based; details: 3020Y60; pH 7.2; Klebsiella pneumoniae 3020 Y-60; 1**: gentamicin, producing adenylsynthetase; read-out: Minimum inhibition concentration (MIC)
Method: as §1, §2

[19] = tested on: Escherichia coli R18 KY8321; experiment: MIC, agar dilution method, pH 7.2; type: cell-based; details: R18KY8321, E. coli R18 KY8321, 2**: gentamicin, producing adenylsynthetase and neomycin phosphotransferase type II, read-out: Minimum inhibition concentration (MIC)
Method: as §1
2: gentamicin, producing adenylsynthetase and neomycin phosphotransferase

[20] = tested on: Escherichia coli R17 Z343; experiment: MIC, agar dilution method, pH 7.2; type: cell-based; details: R17Z343, pH 7.2, E. coli R17 Z343, 3**: kanamycin, producing acetyltransferase, read-out: Minimum inhibition concentration (MIC)
Method: as §1
(§3) 3: kanamycin, producing acetyltransferase.

[21] = tested on: Pseudomonas aeruginosa R9 KY8516; experiment: MIC, agar dilution method, pH 7.2; type: cell-based; details: R9KY8516, pH 7.2, P. aeruginosa R9 KY8516, 3**: kanamycin, producing acetyltransferase, read-out: Minimum inhibition concentration (MIC)
Method: as §1, §3

Serratia marcescens 1065 = experiment: MIC, agar dilution method, pH 7.2; type: cell-based; details: pH 7.2; Serratia marcescens 1065; 3**: kanamycin, producing acetyltransferase; read-out: Minimum inhibition concentration (MIC)
Method: as §1, §3

[22] = tested on: Escherichia coli R19 KY8348; experiment: MIC, agar dilution method, pH 7.2; type: cell-based; details: R19KY8348, pH 7.2, E. coli R19 KY8348, 4**: gentamicin, producing acetyltransferase type I, read-out: Minimum inhibition concentration (MIC)
Method: as §1
(§4) 4: gentamicin, producing acetyltransferase type I.

[23] = tested on: Pseudomonas aeruginosa R4 KY8511; experiment: MIC, agar dilution method, pH 7.2; type: cell-based; details: R4KY8511, pH 7.2, P. aeruginosa R4 KY8511, 4**: gentamicin, producing acetyltransferase type I, read-out: Minimum inhibition concentration (MIC)
Method: as §1, §4

[24] = tested on: Escherichia coli R20 KY8349; experiment: MIC, agar dilution method, pH 7.2; type: cell-based; details: R20KY8349, pH 7.2, E. coli R20 KY8349, 5**: neomycin, producing phosphotransferase type I, read-out: Minimum inhibition concentration (MIC)
Method: as §1
5: neomycin, producing phosphotransferase type I.

[25] = tested on: Pseudomonas aeruginosa R5 KY8512; experiment: MIC, agar dilution method, pH 7.2; type: cell-based; details: R5KY8512, pH 7.2, P. aeruginosa R5 KY8512, 6**: neomycin, producing phosphotransferase type I and type II, read-out: Minimum inhibition concentration (MIC)
Method: as §1
6: neomycin, producing phosphotransferase type I and type II.

Providencia sp 164 = experiment: MIC, agar dilution method, pH 7.2; type: cell-based; details: pH 7.2; Providencia sp 164; 7**: gentamicin, producing acetyltransferase type II; read-out: Minimum inhibition concentration (MIC)
Method: as §1
7: gentamicin, producing acetyltransferase type II.

various microorganisms = experiment: Antibacterial activity (general statements); type: cell-based; details: qualitative statement
Method: as §1

## CO[C@H]1[C@@H](O)[C@H](N)[C@@H](O[C@H]2O[C@H]([C@H](C)N)CC[C@H]2N)[C@H](O)[C@@H]1N(C)C(=O)[C@@H](O)CCN [Compound 14, 4-N-[L-(-)-γ-amino-α-hydroxybutyryl]fortimicin B]
[1]; pH 8.0, Staphylococcus aureus KY4279, read-out: Minimum inhibition concentration (MIC), SA
  MIC: 0.63 µg/mL (≈ 1.4 µM)
Bacillus subtilis KY4273; pH 8.0, Bacillus subtilis KY4273, read-out: Minimum inhibition concentration (MIC), BS
  MIC: 5 µg/mL (≈ 11.1 µM)
[2]
  MIC: 0.63 µg/mL (≈ 1.4 µM)
[3]
  MIC: 10 µg/mL (≈ 22.2 µM)
[4]
  MIC: 20 µg/mL (≈ 44.5 µM)
[5]
  MIC: 2.5 µg/mL (≈ 5.56 µM)
[6]
  MIC: 5 µg/mL (≈ 11.1 µM)
[7]
  Stability in aqueous solution: almost completely decomposed

## CN[C@H]1[C@@H](O)[C@H](O[C@H]2O[C@H]([C@H](C)N)CC[C@H]2N)[C@@H](N)[C@H](O)[C@@H]1OC [Compound 1, fortimicin B]
Escherichia coli NIHTC-2
  MIC: > 100 µg/mL
[8]
  MIC: > 100 µg/mL
[9]
  MIC: 100 µg/mL (≈ 287 µM)
Proteus vulgaris JJ
  MIC: > 100 µg/mL
[10]
  MIC: > 100 µg/mL
[11]
  MIC: > 100 µg/mL
[12]
  MIC: 100 µg/mL (≈ 287 µM)
Shigella sonnei ATCC9290
  MIC: > 100 µg/mL
[13]
  MIC: > 100 µg/mL
[14]
  MIC: 100 µg/mL (≈ 287 µM)
[15]
  MIC: 100 µg/mL (≈ 287 µM)
Eschericihia coli 3100
  MIC: 100 µg/mL (≈ 287 µM)
[16]
  MIC: > 100 µg/mL
Escherichia coli 76-2
  MIC: > 100 µg/mL
[17]
  MIC: > 100 µg/mL
[18]
  MIC: > 100 µg/mL
[19]
  MIC: > 100 µg/mL
[20]
  MIC: > 100 µg/mL
[21]
  MIC: > 100 µg/mL
Serratia marcescens 1065
  MIC: > 100 µg/mL
[22]
  MIC: > 100 µg/mL
[23]
  MIC: > 100 µg/mL
[24]
  MIC: > 100 µg/mL
[25]
  MIC: > 100 µg/mL
Providencia sp 164
  MIC: > 100 µg/mL
[1]; Staphylococcus aureus, pH 8, read-out: Minimum inhibition concentration (MIC), SA
  MIC: 12.5 µg/mL (≈ 35.9 µM)
Bacillus subtilis KY4273; Bacillus subtilis, KY4273, pH 8, read-out: Minimum inhibition concentration (MIC), BS
  MIC: 12.5 µg/mL (≈ 35.9 µM)
[2]
  MIC: 25 µg/mL (≈ 71.7 µM)
[3]
  MIC: 25 µg/mL (≈ 71.7 µM)
[4]
  MIC: 50 µg/mL (≈ 143 µM)
[5]
  MIC: 12.5 µg/mL (≈ 35.9 µM)
[6]
  MIC: 50 µg/mL (≈ 143 µM)
Various microorganisms
  Antibacterial activity: not as good as the other factors
